The record followed here is US20240383905A1, “FGFR INHIBITORS AND METHODS OF USE THEREOF” (3H PHARMACEUTICALS CO., LTD., priority 2021, published 2024).

pIC50: −log10 of the molar value.

The target in one test is T1, FGFR2 (Homo sapiens, UniProt P21802).
T1 construct: purchased Carna 08-134
Briefly: FGFR2 Biochemical Caliper Assay (KinEASE-TK kit). The note with it: 0.07 nM FGFR2; compound incubated with protein 10 min, reaction 45 min at RT; read-out: FGFR2 Cliper IC50. The method, then: Compounds of the present invention were tested in a FGFR1, FGFR2, and FGFR3 Biochemical Caliper Assay.
(§1) Enzyme activity was monitored using KinEASE-TK kit (CisBio, Cat.No. 62TK0PEC) according to manufacturer's instructions. […] Final enzyme concentration was 0.2 nM for FGFR1 and FGFR3, 0.07 nM for FGFR2. Compounds were prepared in 10 mM DMSO and serially diluted into 10 concentrations by 3-fold dilution. Prior to the initiation of the reaction by adding TK-substrate/ATP mixture, the compounds were incubated with protein for 10 min at RT. […] Plates were quenched by adding TK-antibody-Cryptate and Sa-XL665 mixture. After 60 min in the stop solution, read the signal on microplate reader (Molecular Devices, i3x), excitation of 320 nm and emission of 615 nm and 665 nm with a […]. IC50 values were calculated using Prism 7 (GraphPad).

Another test has as its target T2, FGFR1 (Homo sapiens, UniProt P11362).
T2 construct: purchased Carna 08-133
Briefly: FGFR1 Biochemical Caliper Assay (KinEASE-TK kit). The note with it: ratio FGFR1/FGFR2 of the biochemical assay. The method, then:
as §1, with “Compounds of the present invention were tested in a FGFR1, FGFR2, and FGFR3 Biochemical Caliper Assay. Enzyme” for “Enzyme”

The target of a further test is T3, FGFR3 (Homo sapiens, UniProt P22607).
T3 construct: purchased Carna 08-135
As to the kind of experiment: FGFR3 Biochemical Caliper Assay (KinEASE-TK kit). The following applies: ratio FGFR3/FGFR2 of the biochemical assay. The method, then:
as §1, with “Compounds of the present invention were tested in a FGFR1, FGFR2, and FGFR3 Biochemical Caliper Assay. Enzyme” for “Enzyme”

For a further test, the system named is SNU16 cells. Briefly: SNU16 Cancer Cell Line Proliferation Assay (CellTiter-Glo). In kind it is cell-based. The note with it: Homo sapiens, SNU-16, 72 h. The method, then: Compounds of the present invention were also tested in a SNU16 Cancer Cell Line Proliferation Assay.
SNU16 cells were plated in 96-well clear bottom/white plate(Costar, Cat.No. 3610) at 5000 cells/well in 100 μl medium. Test compounds were prepared in a 10 mM DMSO stock solution and serially diluted into 9 concentrations by 3-fold dilution. 0.5 μl of each concentration of compound was added into the cell culture plates and DMSO as a control. The plates were incubated for 72 h at 37° C. and 5% CO2 incubator. 50 μl CellTiter-Glo reagent (Promega, G7572) was added into each well and then the plates were shaken gently for 10 min at room temperature. Luminescence was read on microplate reader (Molecular Devices, i3x), IC50 values were calculated using Prism 7 (GraphPad).

T2 sequence (P11362 22-822): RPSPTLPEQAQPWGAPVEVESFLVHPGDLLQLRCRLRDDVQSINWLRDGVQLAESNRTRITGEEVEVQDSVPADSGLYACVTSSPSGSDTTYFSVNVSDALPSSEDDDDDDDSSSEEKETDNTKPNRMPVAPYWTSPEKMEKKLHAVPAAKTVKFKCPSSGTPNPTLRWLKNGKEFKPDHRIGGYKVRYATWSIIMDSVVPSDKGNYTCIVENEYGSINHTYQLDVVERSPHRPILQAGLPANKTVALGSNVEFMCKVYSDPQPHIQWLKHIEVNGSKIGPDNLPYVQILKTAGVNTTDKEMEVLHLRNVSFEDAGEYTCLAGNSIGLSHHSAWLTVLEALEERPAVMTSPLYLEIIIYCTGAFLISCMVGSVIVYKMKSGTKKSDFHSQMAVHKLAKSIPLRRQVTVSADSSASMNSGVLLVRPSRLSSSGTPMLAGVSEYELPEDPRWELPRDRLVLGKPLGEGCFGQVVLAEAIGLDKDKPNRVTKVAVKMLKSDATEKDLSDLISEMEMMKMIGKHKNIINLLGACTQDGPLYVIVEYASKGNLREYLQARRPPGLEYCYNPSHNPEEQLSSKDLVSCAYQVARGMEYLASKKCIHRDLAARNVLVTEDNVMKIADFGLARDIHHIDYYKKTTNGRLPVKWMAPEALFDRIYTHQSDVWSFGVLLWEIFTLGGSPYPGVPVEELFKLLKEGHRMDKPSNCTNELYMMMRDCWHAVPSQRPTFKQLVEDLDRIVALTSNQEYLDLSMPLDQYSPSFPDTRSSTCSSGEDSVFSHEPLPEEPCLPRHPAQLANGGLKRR
T1 sequence (P21802 22-821): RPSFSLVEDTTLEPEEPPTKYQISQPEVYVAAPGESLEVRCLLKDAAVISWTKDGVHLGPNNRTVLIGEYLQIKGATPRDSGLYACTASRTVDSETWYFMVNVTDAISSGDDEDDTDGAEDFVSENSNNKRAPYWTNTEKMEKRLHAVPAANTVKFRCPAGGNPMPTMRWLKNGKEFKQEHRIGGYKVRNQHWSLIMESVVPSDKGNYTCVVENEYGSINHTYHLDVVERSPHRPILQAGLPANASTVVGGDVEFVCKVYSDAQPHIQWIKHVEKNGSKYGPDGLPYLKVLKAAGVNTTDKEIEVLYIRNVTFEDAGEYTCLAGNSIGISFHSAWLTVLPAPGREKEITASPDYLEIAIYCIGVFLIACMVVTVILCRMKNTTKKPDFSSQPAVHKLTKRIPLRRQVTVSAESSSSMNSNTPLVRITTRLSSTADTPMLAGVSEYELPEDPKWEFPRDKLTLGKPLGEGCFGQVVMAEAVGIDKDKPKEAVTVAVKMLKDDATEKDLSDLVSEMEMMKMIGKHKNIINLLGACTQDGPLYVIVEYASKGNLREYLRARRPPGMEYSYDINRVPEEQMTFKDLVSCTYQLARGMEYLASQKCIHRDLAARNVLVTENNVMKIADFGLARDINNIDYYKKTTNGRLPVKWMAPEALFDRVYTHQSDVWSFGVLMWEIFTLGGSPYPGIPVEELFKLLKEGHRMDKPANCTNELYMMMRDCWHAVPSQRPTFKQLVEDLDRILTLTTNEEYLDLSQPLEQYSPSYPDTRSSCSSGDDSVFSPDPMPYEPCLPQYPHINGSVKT
T3 sequence (P22607 23-806): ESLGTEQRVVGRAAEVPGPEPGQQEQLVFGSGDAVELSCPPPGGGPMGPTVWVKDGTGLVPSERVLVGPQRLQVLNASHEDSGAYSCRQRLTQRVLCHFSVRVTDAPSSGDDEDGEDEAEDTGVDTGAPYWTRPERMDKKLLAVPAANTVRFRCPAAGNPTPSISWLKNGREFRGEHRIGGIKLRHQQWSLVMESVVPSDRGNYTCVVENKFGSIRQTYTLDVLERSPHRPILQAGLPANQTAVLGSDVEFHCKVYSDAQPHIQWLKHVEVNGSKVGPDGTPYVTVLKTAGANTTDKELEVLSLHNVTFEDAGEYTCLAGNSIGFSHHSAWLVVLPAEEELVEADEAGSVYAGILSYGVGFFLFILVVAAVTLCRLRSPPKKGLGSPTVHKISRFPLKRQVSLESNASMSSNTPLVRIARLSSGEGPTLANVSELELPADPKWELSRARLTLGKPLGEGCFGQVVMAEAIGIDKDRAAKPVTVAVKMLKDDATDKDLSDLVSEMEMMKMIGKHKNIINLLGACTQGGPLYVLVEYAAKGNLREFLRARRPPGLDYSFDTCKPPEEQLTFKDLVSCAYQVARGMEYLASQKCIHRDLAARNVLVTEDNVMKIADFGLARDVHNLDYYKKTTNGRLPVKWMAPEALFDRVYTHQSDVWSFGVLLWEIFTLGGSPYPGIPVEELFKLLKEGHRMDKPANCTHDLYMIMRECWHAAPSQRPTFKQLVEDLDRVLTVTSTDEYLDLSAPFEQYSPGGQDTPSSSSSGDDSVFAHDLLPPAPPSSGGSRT

The pIC50 is the negative decadic logarithm of the IC50, by convention in mol/L. As to `C=CC(=O)Nc1ccc(-c2nn3ncnc(N)c3c2-c2ccc(C(=O)NCC(F)(F)F)c(OC)c2)cn1` [Compound 90, 4-(6-(6-acrylamidopyridin-3-yl)-4-aminopyrazolo[5,1-f] [1,2,4]triazin-5-yl)-2-methoxy-N-(2,2,2-trifluoroethyl)benzamide], the negative-log IC50 (pIC50) was more than 8.30 on FGFR2 and 7.30 to 8.00 in the test with SNU16 cells. At FGFR1, the “Selectivity FGFR1/FGFR2” value is recorded as “A (Selectivity of FGFR1/FGFR2 less than 500 but greater than or equal to 300)”. Moreover, the “Selectivity FGFR3/FGFR2” value on FGFR3 is given as “B (Selectivity of FGFR3/FGFR2 less than 100 but greater than or equal to 25)”.
On to `C=CC(=O)Nc1ccc(-c2c(-c3ccc(C(=O)NC4(C)CC4)c(OC)c3)c3c(N)ncc(C#N)c3n2C)cc1` [Compound 169], for which the negative logarithm of the IC50 (pIC50) at FGFR2 was more than 8.30; in the test with SNU16 cells it was not below 8.00. In addition, the “Selectivity FGFR1/FGFR2” value at FGFR1 was “A+ (Selectivity of FGFR1/FGFR2 greater or equal to 500)”. Also, the “Selectivity FGFR3/FGFR2” value at FGFR3 is “B (Selectivity of FGFR3/FGFR2 less than 100 but greater than or equal to 25)”.
Consider `C=C(C)C(=O)Nc1ccc(-c2nn3ncnc(N)c3c2-c2ccc(C(=O)NC3(C(F)(F)F)CC3)c(OC)c2)c(F)c1` [Compound 429], for which the results for the pIC50 on FGFR2 and in the test on SNU16 cells were 8.00 to 8.30 and not below 8.00, respectively. In addition, the “Selectivity FGFR1/FGFR2” value at FGFR1 was “A+ (Selectivity of FGFR1/FGFR2 greater or equal to 500)”. Moreover, at FGFR3, the “Selectivity FGFR3/FGFR2” value is “A+ (Selectivity of FGFR3/FGFR2 greater or equal to 150)”.
As for `C=C(F)C(=O)Nc1ccc(-c2nn3ncnc(N)c3c2-c2ccc(C(=O)NC3CCCC3)c(OC)c2)cc1` [Compound 93, 4-(4-amino-6-(4-(2-fluoroacrylamido)phe-nyl)pyrazolo[5,1-f] [1,2,4]triazin-5-yl)-N-cyclopentyl-2-methoxybenzamide], the results for the pIC50 at FGFR2 and with SNU16 cells were less than 8.00 and not below 8.00, respectively. Also, on FGFR1, the “Selectivity FGFR1/FGFR2” value was “A+ (Selectivity of FGFR1/FGFR2 greater or equal to 500)”. Further, the “Selectivity FGFR3/FGFR2” value on FGFR3 is given as “A+ (Selectivity of FGFR3/FGFR2 greater or equal to 150)”.
In the case of `C=CC(=O)Nc1ccc(-c2nn3ncnc(N)c3c2-c2ccc(Oc3nccc(C)n3)c(F)c2)cc1` [Compound 205, N-(4-(4-amino-5-(3-fluoro-4-((4-methylpyrimidin-2-yl)oxy)phenyl)pyrazolo [5,1-f][1,2,4]triazin-6-yl)phenyl)acrylamide], the negative logarithm of the IC50 (pIC50) at FGFR2 is more than 8.30; with SNU16 cells, not below 8.00. The “Selectivity FGFR1/FGFR2” value on FGFR1 is on record as “A+ (Selectivity of FGFR1/FGFR2 greater or equal to 500)”. In addition, the “Selectivity FGFR3/FGFR2” value at FGFR3 is recorded as “B (Selectivity of FGFR3/FGFR2 less than 100 but greater than or equal to 25)”.
`C=CC(=O)Nc1ccc(-c2nn3ncnc(N)c3c2-c2ccc(C(=O)NC3CCC3)c(C)c2)cc1` [Compound 74, 4-(6-(4-acrylamidophenyl)-4-aminopyrazolo[5,1-f][1,2,4]triazin-5-yl)-N-cyclobutyl-2-methylbenzamide]: the pIC50 is less than 8.00 on FGFR2 and not below 8.00 with SNU16 cells. Moreover, the “Selectivity FGFR1/FGFR2” value at FGFR1 is recorded as “C (Selectivity of FGFR1/FGFR2 less than 200 but greater than or equal to 100)”. Besides, the “Selectivity FGFR3/FGFR2” value at FGFR3 is “A+ (Selectivity of FGFR3/FGFR2 greater or equal to 150)”.
The matching figures for `C=CC(=O)Nc1ccc(-c2c(-c3ccc(C(=O)NC4CC4)c(OC)c3)c3c(N)ncc(C#N)c3n2C)c(F)c1` [Compound 157, 4-(2-(4-acrylamido-2-fluorophenyl)-4-amino-7-cyano-1-methyl-1H-pyrrolo[3,2-c]pyridin-3-yl)-N-cyclopropyl-2-methoxybenzamide]: more than 8.30, not below 8.00, “B (Selectivity of FGFR1/FGFR2 less than 300 but greater than or equal to 200)” and “B (Selectivity of FGFR3/FGFR2 less than 100 but greater than or equal to 25)”.
Turning to `C=C(F)C(=O)Nc1ccc(-c2nn3ncnc(N)c3c2-c2ccc(C(=O)NC3(C(F)(F)F)CC3)c(OC)c2)c(C(F)(F)F)c1` [Compound 432], the pIC50 at FGFR2 is more than 8.30; with SNU16 cells, not below 8.00. Further, the “Selectivity FGFR1/FGFR2” value on FGFR1 was “B (Selectivity of FGFR1/FGFR2 less than 300 but greater than or equal to 200)”. Besides, the “Selectivity FGFR3/FGFR2” value on FGFR3 is recorded as “B (Selectivity of FGFR3/FGFR2 less than 100 but greater than or equal to 25)”.
The matching figures for `C=CC(=O)Nc1ccc(-c2nn3ncnc(N)c3c2-c2ccc(C(=O)NCC(C)C)c(OC)c2)cc1` [Compound 81, 4-(6-(4-acrylamidophenyl)-4-aminopyrazolo[5,1-f] [1,2,4]triazin-5-yl)-N-isobutyl-2-methoxybenzamide]: more than 8.30, not below 8.00, “A+ (Selectivity of FGFR1/FGFR2 greater or equal to 500)” and “A+ (Selectivity of FGFR3/FGFR2 greater or equal to 150)”.
In the case of `C=C(F)C(=O)Nc1ccc(-c2c(-c3ccc(C(=O)NC4CC4)c(OC)c3)c3c(N)ncc(C#N)c3n2C)cc1` [Compound 104, 4-(4-amino-7-cyano-2-(4-(2-fluoroacrylamido)phenyl)-1-methyl-1H-pyrrolo[3,2-c]pyridin-3-yl)-N-cyclopropyl-2-methoxybenzamide], the pIC50 was 8.00 to 8.30 at FGFR2 and not below 8.00 with SNU16 cells. On FGFR1, the “Selectivity FGFR1/FGFR2” value is given as “A+ (Selectivity of FGFR1/FGFR2 greater or equal to 500)”. The “Selectivity FGFR3/FGFR2” value at FGFR3 is on record as “A+ (Selectivity of FGFR3/FGFR2 greater or equal to 150)”.
The matching figures for `C=C(F)C(=O)Nc1ccc(-c2nn3ncnc(N)c3c2-c2ccc(C(=O)NCC3CC3)c(OC)c2)cc1` [Compound 163]: more than 8.30, not below 8.00, “A+ (Selectivity of FGFR1/FGFR2 greater or equal to 500)” and “A+ (Selectivity of FGFR3/FGFR2 greater or equal to 150)”.
On to `C=CC(=O)Nc1ccc(-c2c(-c3ccc(C(=O)NC4CC(F)C4)c(OC)c3)c3c(N)ncc(C#N)c3n2C)cc1` (stereo not drawn) [Compound 168, 4-(2-(4-acrylamidophenyl)-4-amino-7-cyano-1-methyl-1H-pyrrolo[3,2-c]pyridin-3-yl)-N-(3-fluorocyclobutyl)-2-methoxybenzamide], for which the negative-log IC50 (pIC50) was more than 8.30 at FGFR2 and not below 8.00 in the test with SNU16 cells. Also, the “Selectivity FGFR1/FGFR2” value at FGFR1 is recorded as “A+ (Selectivity of FGFR1/FGFR2 greater or equal to 500)”. Also, the “Selectivity FGFR3/FGFR2” value at FGFR3 was “A+ (Selectivity of FGFR3/FGFR2 greater or equal to 150)”.
`C=CC(=O)Nc1ccc(-c2nn3ncnc(N)c3c2-c2ccc(C(=O)NCC3CCC3)c(OC)c2)cc1` [Compound 45, 4-(6-(4-acrylamidophenyl)-4-aminopyrazolo[5,1-f] [1,2,4]triazin-5-yl)-N-(cyclobutylmethyl)-2-methoxybenzamide]: the pIC50 on FGFR2 is more than 8.30; with SNU16 cells, not below 8.00. Moreover, the “Selectivity FGFR1/FGFR2” value at FGFR1 was “B (Selectivity of FGFR1/FGFR2 less than 300 but greater than or equal to 200)”. In addition, at FGFR3, the “Selectivity FGFR3/FGFR2” value is “B (Selectivity of FGFR3/FGFR2 less than 100 but greater than or equal to 25)”.
Take `C=C(F)C(=O)Nc1ccc(-c2nn3ncnc(N)c3c2-c2ccc(C(=O)NC34CC(F)(C3)C4)c(OC)c2)c(OC)c1` [Compound 416, 4-(4-amino-6-(4-(2-fluoroacrylamido)-2-methoxyphenyl)pyrazolo[5,1-f][1,2,4]triazin-5-yl)-N-(3-fluorobicyclo[1.1.1]pentan-1-yl)-2-methoxybenzamide]: the pIC50 was more than 8.30 on FGFR2 and not below 8.00 with SNU16 cells. Moreover, the “Selectivity FGFR1/FGFR2” value at FGFR1 is “B (Selectivity of FGFR1/FGFR2 less than 300 but greater than or equal to 200)”. In addition, the “Selectivity FGFR3/FGFR2” value at FGFR3 is on record as “B (Selectivity of FGFR3/FGFR2 less than 100 but greater than or equal to 25)”.
`C=CC(=O)Nc1ccc(-c2nn3ncnc(N)c3c2-c2ccc(C(=O)NC3CC3)c(OC)c2)c(F)c1` [Compound 155, 4-(6-(4-acrylamido-2-fluorophenyl)-4-aminopyrazolo[5,1-f] [1,2,4]triazin-5-yl)-N-cyclopropyl-2-methoxybenzamide]: the negative-log IC50 (pIC50) on FGFR2 is more than 8.30; in the test with SNU16 cells, not below 8.00. The “Selectivity FGFR1/FGFR2” value at FGFR1 is given as “A+ (Selectivity of FGFR1/FGFR2 greater or equal to 500)”. Besides, the “Selectivity FGFR3/FGFR2” value at FGFR3 is on record as “A (Selectivity of FGFR3/FGFR2 less than 150 but greater than or equal to 100)”.
